Source: US10231453B2, “5-substituted imidazole derivatives” (BAYER CROPSCIENCE AKTIENGESELLSCHAFT, priority 2015, dated 2019)
Read-outs that look alike come from different tables or passages of the source.

How the values were obtained:
[1] = tested on: Fusarium nivale (var. majus); assay: In vivo preventive Fusarium nivale (var. majus) test (wheat), Example O; details: Microdochium nivale, 120 h, 500 ppm of active ingredient, preventive spray, evaluated 5 days after inoculation, read-out: efficacy
Excerpt: After the spray coating has been dried, the plants are slightly injured by using a sandblast and afterwards they are sprayed with a conidia suspension of Fusarium nivale (var. majus).

Pyrenophora teres = assay: In vivo preventive test on Pyrenophora teres (net blotch on barley), Examples D, Q2 and R4; details: Pyrenophora teres, 336 h
Fusarium culmorum [2] = assay: In vivo preventive Fusarium culmorum test (wheat), Example L; details: 120 h, 500 ppm of active ingredient, preventive spray, evaluated 5 days after inoculation, read-out: efficacy
Protocol: After the spray coating has been dried, the plants are slightly injured by using a sandblast and afterwards they are sprayed with a conidia suspension of Fusarium culmorum.
The test is evaluated 5 days after the inoculation.

Leptosphaeria nodorum [3] = assay: In vitro test for the calculation of the ED50-value with microorganisms, Example Q4: Leptosphaeria nodorum; assay type: cell-based; details: liquid culture, spore suspension, 4 to 7 days incubation, spectrometric measurement of mycelium growth
Venturia inaequalis = assay: In vivo preventive Venturia test (apples), Example J; details: 240 h, read-out: efficacy
Protocol: After the spray coating has dried on, the plants are inoculated with an aqueous conidia suspension of the causal agent of apple scab (Venturia inaequalis) and then remain for 1 day in an incubation cabinet at approximately 20° C. and a relative atmospheric humidity of 100%.
The plants are then placed in a greenhouse at approximately 21° C. and a relative atmospheric humidity of approximately 90%.
The test is evaluated 10 days after the inoculation.

Septoria tritici [4] = assay: In vitro test for the calculation of the ED50-value with microorganisms, Example Q4: Septoria tritici; assay type: cell-based; details: liquid culture, spore suspension, 4 to 7 days incubation, spectrometric measurement of mycelium growth
Botrytis cinerea [5] = assay: In vivo preventive test on Botrytis cinerea (grey mould) on gherkin, Examples B, Q1 and R2; details: for pest or weed control at 500 ppm / pest or weed control at 100 ppm: Botrytis cinerea; for pest or weed control at 100 ppm: Example Q1, rate of application 100 ppm
[6] = tested on: Blumeria graminis fsp. hordei; assay: In vivo preventive Blumeria test (barley), Example K; details: 168 h, 500 ppm of active ingredient, preventive spray, evaluated 7 days after inoculation, read-out: efficacy
Excerpt: After the spray coating has been dried, the plants are dusted with spores of Blumeria graminis fsp. hordei.

Leptosphaeria nodorum [7] = assay: In vivo preventive Leptosphaeria nodorum test (wheat), Example N; details: Parastagonospora nodorum, 192 h, 500 ppm of active ingredient, preventive spray, evaluated 8 days after inoculation, read-out: efficacy
Excerpt: After the spray coating has been dried, the plants are sprayed with a spore suspension of Leptosphaeria nodorum.

Fusarium culmorum [8] = assay: In vitro test for the calculation of the ED50-value with microorganisms, Example Q4: Fusarium culmorum; assay type: cell-based; details: liquid culture, spore suspension, 4 to 7 days incubation, spectrometric measurement of mycelium growth
Protocol: • Solvent: Dimethyl sulfoxide • Culture medium: 14.6 g anhydrous D-glucose (VWR), 7.1 g Mycological Peptone (Oxoid), 1.4 g granulated Yeast Extract (Merck), QSP liter • Inoculum: Spore suspension
Fungicides were solubilized in DMSO and the solution used to prepare the required range of concentrations. The final concentration of DMSO used in the assay was ≤1%.
A spore suspension was prepared and diluted to the desired spore density.
Fungicides were evaluated for their ability to inhibit spore germination and mycelium growth in liquid culture assay. The compounds were added in the desired concentration to the culture medium with spores. After 4 to 7 days incubation, fungi-toxicity of compounds was determined by spectrometric measurement of mycelium growth. Inhibition of fungal growth was determined by comparing the absorbance values in wells containing the fungicides with the absorbance in control wells without fungicides.

Fusarium graminearum = assay: whole plant or invertebrate; assay type: in vivo; details: in Hordeum vulgare, 120 h, read-out: efficacy
Puccinia recondita = assay: In vivo preventive test on Puccinia recondita (brown rust on wheat), Examples C and R3; details: Puccinia recondita, 264 h, preventive spray, evaluated 11 days after inoculation
Botrytis cinerea [9] = assay: In vitro test for the calculation of the ED50-value with microorganisms, Example Q4: Botrytis cinerea; assay type: cell-based; details: liquid culture, spore suspension, 4 to 7 days incubation, spectrometric measurement of mycelium growth
Sphaerotheca fuliginea = assay: In vivo preventive test on Sphaerotheca fuliginea (powdery mildew on cucurbits), Examples F and R6; details: Podosphaera fuliginea, 360 h, preventive spray, evaluated 15 days after inoculation
Alternaria solani = assay: In vivo preventive Alternaria test (tomatoes), Example H; details: 72 h, 100 ppm of active ingredient, preventive spray, evaluated 3 days after inoculation, read-out: efficacy
Phakopsora pachyrhizi = assay: In vivo preventive Phakopsora test (soybeans), Example I; details: 168 h, 100 ppm of active ingredient, preventive spray, evaluated 7 days after inoculation, read-out: efficacy
Septoria tritici [10] = assay: In vivo preventive test on Septoria tritici (leaf spot on wheat), Examples E, Q3 and R5; details: Zymoseptoria tritici, 576 h
Uromyces appendiculatus = assay: In vivo preventive test on Uromyces appendiculatus (bean rust), Examples G and R7; details: 264 h, preventive spray, evaluated 11 days after inoculation
Pyricularia oryzae = assay: whole plant or invertebrate; assay type: in vivo; details: 192 h, read-out: efficacy
[11] = Measurement of LogP values by HPLC on reversed phase columns (EEC directive 79/831 Annex V.A8); assay type: physicochemical; details: method [a]: LC-UV, acidic range, 0.1% formic acid in water and acetonitrile as eluent; Table 1
Protocol: Measurement of Log P values was performed as outlined above.

Alternaria brassicae = assay: In vivo preventive test on Alternaria brassicae (leaf spot on radish), Examples A and R1; details: Alternaria brassicae, 144 h
[12] = 500 ppm of active ingredient, preventive spray, evaluated 14 days after inoculation, read-out: efficacy
[13] = Example Q2, rate of application 100 ppm, read-out: Efficacy in %
[14] = Example Q2, rate of application 500 ppm, read-out: Efficacy in %
[15] = Example R4, rate of application 100 ppm, read-out: Efficacy in %
[16] = Example R4, rate of application 500 ppm, read-out: Efficacy in %
[17] = 500 ppm of active ingredient, preventive spray, evaluated 4 to 5 days after inoculation, read-out: efficacy
[18] = Example Q1, rate of application 500 ppm, read-out: Efficacy in %
[19] = Example R2, rate of application 100 ppm
[20] = Example R2, rate of application 500 ppm
[21] = 500 ppm of active ingredient, wheat, read-out: efficacy
[22] = Example R3, wheat, read-out: Efficacy in %
[23] = Example R3, wheat, 500 ppm, read-out: Efficacy in %
[24] = 500 ppm of active ingredient, gherkin, read-out: efficacy
[25] = Example R6, gherkin, read-out: Efficacy in %
[26] = Example R6, gherkin, 500 ppm, read-out: Efficacy in %
[27] = 500 ppm of active ingredient, wheat, preventive spray, evaluated 24 days after inoculation, read-out: efficacy
[28] = Example Q3, rate of application 100 ppm, wheat, read-out: Efficacy in %
[29] = Example Q3, rate of application 500 ppm, wheat, read-out: Efficacy in %
[30] = Example R5, wheat, preventive spray, 100 ppm, evaluated 24 days after inoculation, read-out: Efficacy in %
[31] = Example R5, wheat, preventive spray, 500 ppm, evaluated 24 days after inoculation, read-out: Efficacy in %
[32] = 500 ppm of active ingredient, bean, read-out: efficacy
[33] = Example R7, bean, read-out: Efficacy in %
[34] = Example R7, bean, 500 ppm, read-out: Efficacy in %

SMILES | pest or weed control at 500 ppm (Pyrenophora teres; [12]) [%] | pest or weed control at 100 ppm (Pyrenophora teres; [13]) [%] | pest or weed control at 500 ppm (Pyrenophora teres; [14]) [%] | pest or weed control at 100 ppm (Pyrenophora teres; [15]) [%] | pest or weed control at 500 ppm (Pyrenophora teres; [16]) [%] | Leptosphaeria nodorum ED50 value in ppm (Leptosphaeria nodorum [3]) [ppm] | pest or weed control at 100 ppm (Venturia inaequalis) [%] | Septoria tritici ED50 value in ppm (Septoria tritici [4]) [ppm] | pest or weed control at 500 ppm (Botrytis cinerea [5]; [17]) [%] | pest or weed control at 100 ppm (Botrytis cinerea [5]; read-out: Efficacy in %) [%] | pest or weed control at 500 ppm (Botrytis cinerea [5]; [18]) [%] | Efficacy in % (Botrytis cinerea [5]; [19]) [%] | Efficacy in % (Botrytis cinerea [5]; [20]) [%] | pest or weed control at 500 ppm [6] [%] | pest or weed control at 500 ppm (Leptosphaeria nodorum [7]) [%] | Fusarium culmorum ED50 value in ppm (Fusarium culmorum [8]) [ppm] | pest or weed control at 500 ppm (Puccinia recondita; [21]) [%] | pest or weed control at 100 ppm (Puccinia recondita; [22]) [%] | pest or weed control at 500 ppm (Puccinia recondita; [23]) [%] | Botrytis cinerea ED50 value in ppm (Botrytis cinerea [9]) [ppm] | other results
N#Cc1cncn1CC(O)(Cc1ccc(Cl)cc1F)C1(Cl)CC1 (centres unmarked) [Example I-29] | 80 to 89 | 83 | 89 | 83 | 89 | 0.02 | 90 to 100 | <0.006 | 90 to 100 | 86 | 99 | 86 | 99 | 90 to 100 | 90 to 100 | 0.01 | 90 to 100 | 94 | 98 | 0.26 | pest or weed control at 500 ppm [1]: 90 to 100%; pest or weed control at 500 ppm (Fusarium culmorum [2]): 80 to 89%; pest or weed control at 500 ppm (Fusarium graminearum): 90 to 100%; pest or weed control at 500 ppm (Sphaerotheca fuliginea; [24]): 90 to 100%; pest or weed control at 100 ppm (Sphaerotheca fuliginea; [25]): 100%; pest or weed control at 500 ppm (Sphaerotheca fuliginea; [26]): 100%; pest or weed control at 100 ppm (Alternaria solani): 90 to 100%; pest or weed control at 100 ppm (Phakopsora pachyrhizi): 90 to 100%; pest or weed control at 500 ppm (Septoria tritici [10]; [27]): 90 to 100%; pest or weed control at 100 ppm (Septoria tritici [10]; [28]): 100%; pest or weed control at 500 ppm (Septoria tritici [10]; [29]): 100%; pest or weed control at 100 ppm (Septoria tritici [10]; [30]): 100%; pest or weed control at 500 ppm (Septoria tritici [10]; [31]): 100%; pest or weed control at 500 ppm (Uromyces appendiculatus; [32]): 90 to 100%; pest or weed control at 100 ppm (Uromyces appendiculatus; [33]): 100%; pest or weed control at 500 ppm (Uromyces appendiculatus; [34]): 100%
OC(Cc1ccc(Cl)cc1F)(Cn1cncc1Cl)C1(Cl)CC1 (centres unmarked) [Example I-27, 2-(1-chlorocyclopropyl)-1-(4-chloro-2-fluorophenyl)-3-(5-chloro-1H-imidazol-1-yl)propan-2-ol] | 90 to 100 | 94 | 98 | 94 | 98 | <0.006 | 90 to 100 | <0.006 | 90 to 100 | 99 | 100 | 99 | 100 | 90 to 100 | 90 to 100 | <0.006 | 90 to 100 | 89 | 98 | 0.02 | pest or weed control at 500 ppm (Pyricularia oryzae): 90 to 100%; pest or weed control at 500 ppm (Sphaerotheca fuliginea; [24]): 90 to 100%; pest or weed control at 100 ppm (Sphaerotheca fuliginea; [25]): 100%; pest or weed control at 500 ppm (Sphaerotheca fuliginea; [26]): 100%; pest or weed control at 100 ppm (Alternaria solani): 90 to 100%; pest or weed control at 100 ppm (Phakopsora pachyrhizi): 90 to 100%; pest or weed control at 500 ppm (Septoria tritici [10]; [27]): 90 to 100%; pest or weed control at 100 ppm (Septoria tritici [10]; [28]): 81%; pest or weed control at 500 ppm (Septoria tritici [10]; [29]): 94%; pest or weed control at 100 ppm (Septoria tritici [10]; [30]): 94%; pest or weed control at 500 ppm (Septoria tritici [10]; [31]): 81%; pest or weed control at 500 ppm (Uromyces appendiculatus; [32]): 90 to 100%; pest or weed control at 100 ppm (Uromyces appendiculatus; [33]): 20%; pest or weed control at 500 ppm (Uromyces appendiculatus; [34]): 100%; chromatographic logP [11]: 2.48; pest or weed control at 500 ppm (Alternaria brassicae; 500 ppm of active ingredient, preventive spray, evaluated 6 days after inoculation, read-out: efficacy): 90 to 100%; pest or weed control at 100 ppm (Alternaria brassicae; Example R1, rate of application 100 ppm, read-out: Efficacy in %): 50%; pest or weed control at 500 ppm (Alternaria brassicae; Example R1, rate of application 500 ppm, read-out: Efficacy in %): 92%
